SMILES strings stand for the structures.

Usually inhibition stands for the change of the read-out against control, counted positive when it falls.

This assay has as its target Gag-Pol polyprotein (Human immunodeficiency virus type 1 group M subtype B (isolate HXB2)) (UniProt P04585). Nature of the assay: HIV-1 RT RNase H inhibitor potency, dose response, biochemical, probe assessment (AID 652). The conditions noted are these: HIV-1 RT RNase H enzymatic assay, inhibition, at 50 µM, stronger effect = higher value.
`Cc1nn2c(-c3cccc(NC(=O)CSc4nc5ccccc5o4)c3)nnc2c2ccccc12` registered an inhibition of 98.2%.

With `COc1ccccc1CNC(=O)c1cc2c(=O)n(C)c3ccccc3c2n1C`, the inhibition stood at 86%.

The molecule `CC1CCN(S(=O)(=O)c2ccc(NC(=O)Cn3nnc(-c4ccccc4)n3)cc2)CC1` showed an inhibition of 61.5%.

As for `c1ccc2c(c1)ncn2Cc1nnc2sc(-c3ccc4c(c3)OCO4)nn12`, the inhibition amounted to 93%.

Consider `CCCSc1nc2c(cnn2-c2ccc(Cl)cc2)c(=O)[nH]1`, for which the inhibition was determined as 92.8%.

In turn, `CC(C)c1nnc(NC(=O)c2c(O)c3cccc4c3n(c2=O)CCC4)s1` registered an inhibition of 64.9%.

As to `COC(=O)c1ccccc1S(=O)(=O)N(Cc1cc2cc3c(cc2[nH]c1=O)OCO3)C1CCCCC1`, the inhibition stood at 90.3%.

For `COc1ccc(N2CSC3=C(C#N)C(c4ccc(OC)c(OC)c4)CC(=O)N3C2)c(OC)c1` (centres undefined), the inhibition is 79.7%.

As for `COc1cccc(-c2nnc(NC(=O)c3ccc(S(=O)(=O)N(CC(C)C)CC(C)C)cc3)o2)c1`, the inhibition came out at 84.4%.

On to `COc1cc(C2CC(=O)N3CN(c4ccccc4C)CSC3=C2C#N)cc(OC)c1OC` (centres undefined), for which the inhibition stood at 100%.

As to `CC(=O)c1cccc(NC(=O)c2cc(-c3ccc(C)cc3)on2)c1`, the inhibition is 95.8%.

In turn, `COc1ccc(CC(=O)Nc2ccc(-c3noc(-c4cccc(OC)c4)n3)cc2)cc1` yielded an inhibition of 85.5%.

`O=c1ccc2cc3c([nH]c4ccc(Br)cc43)oc-2c1O` yielded an inhibition of 88.5%.

On to `CCOC(=O)c1c(NC(=O)c2cc(C3CC3)on2)sc2c1CCCC2`, for which the inhibition was determined as 97.1%.

`CC(C)c1nc2sc3c(SCC(=O)NCc4ccco4)ncnc3c2c2c1CCC2`: the inhibition amounted to 94.1%.

In turn, `Nc1nnc(CSCc2ccc(F)cc2)s1` showed an inhibition of 51.7%.

As to `Cc1cccc(N2CCN(C(=O)Cn3sc4nc(C)cc(C)c4c3=O)CC2C)c1` (centres undefined), the inhibition was found to be 86%.

`COc1cc(OC)c(C2CC(=O)N3CN(c4ccccc4C)CSC3=C2C#N)cc1OC` (centres undefined): the inhibition was determined as 97.9%.

`O=c1c2ccccc2[se]n1-c1ccccc1` came in with an inhibition of 85.5%.

For the origin of these results see PubChem BioAssay AID652 (University of Pittsburgh Molecular Library Screening Center, 2007).
